This note sets out measurements from ChEMBL document CHEMBL5303573, “Mapping human microbiome drug metabolism by gut bacteria and their genes” (Nature, 2019).

Series [1] can be described thus: The drug is tested on Bacteroides coprophilus strain: DSM18228 for biotransformation. The drug concentrations were measured before and after a 12-h incubation by liquid-chromatography-coupled mass spectrometry (LC–MS). The note with it: 2 µM.
Series [2] can be described thus: The drug is tested on Bacteroides dorei strain: DSM17855 for biotransformation. The drug concentrations were measured before and after a 12-h incubation by liquid-chromatography-coupled mass spectrometry (LC–MS). Particulars: phocaeicola dorei, 2 µM.
A short description of series [3]: The drug is tested on Bacteroides uniformis strain: ATCC8492 for biotransformation. The drug concentrations were measured before and after a 12-h incubation by liquid-chromatography-coupled mass spectrometry (LC–MS). Particulars: 2 µM.
A short description of series [4]: The drug is tested on Bacteroides sp. WH2 strain: WH2 for biotransformation. The drug concentrations were measured before and after a 12-h incubation by liquid-chromatography-coupled mass spectrometry (LC–MS). Particulars: bacteroides sp. wh2, 12 h, 2 µM.
A short description of series [5]: The drug is tested on Odoribacter splanchnicus strain: fecal isolate for biotransformation. The drug concentrations were measured before and after a 12-h incubation by liquid-chromatography-coupled mass spectrometry (LC–MS). The note with it: 2 µM.
The nature of series [6]: The drug is tested on Anaerococcus hydrogenalis strain: DSM7454 for biotransformation. The drug concentrations were measured before and after a 12-h incubation by liquid-chromatography-coupled mass spectrometry (LC–MS). The note with it: 2 µM.
The nature of series [7]: The drug is tested on Clostridium asparagiforme strain: DSM15981 for biotransformation. The drug concentrations were measured before and after a 12-h incubation by liquid-chromatography-coupled mass spectrometry (LC–MS). Particulars: enterocloster asparagiformis, 2 µM. The series is classed as ADME. Details: dose 2 uM, timepoint 0 vs 12 hours.
The nature of series [8]: The drug is tested on Clostridium symbiosum strain: ATCC14940 for biotransformation. The drug concentrations were measured before and after a 12-h incubation by liquid-chromatography-coupled mass spectrometry (LC–MS). The note with it: 2 µM.
Series [9] in a line: The drug is tested on Enterococcus faecalis strain: V583 for biotransformation. The drug concentrations were measured before and after a 12-h incubation by liquid-chromatography-coupled mass spectrometry (LC–MS). Particulars: 2 µM.
Series [10] in a line: The drug is tested on Eubacterium hallii strain: DSM3353 for biotransformation. The drug concentrations were measured before and after a 12-h incubation by liquid-chromatography-coupled mass spectrometry (LC–MS). Particulars: anaerobutyricum hallii, 2 µM.
A short description of series [11]: The drug is tested on Eubacterium rectale strain: ATCC33656 for biotransformation. The drug concentrations were measured before and after a 12-h incubation by liquid-chromatography-coupled mass spectrometry (LC–MS). The note with it: agathobacter rectalis, 2 µM.
Series [12] is described as follows: The drug is tested on Edwardsiella tarda strain: ATCC23685 for biotransformation. The drug concentrations were measured before and after a 12-h incubation by liquid-chromatography-coupled mass spectrometry (LC–MS). Particulars: 2 µM.
The nature of series [13]: The drug is tested on Enterobacter cancerogenus strain: ATCC35316 for biotransformation. The drug concentrations were measured before and after a 12-h incubation by liquid-chromatography-coupled mass spectrometry (LC–MS). Particulars: 2 µM.
Series [14] is described as follows: The drug is tested on Escherichia coli strain: BW25113 for biotransformation. The drug concentrations were measured before and after a 12-h incubation by liquid-chromatography-coupled mass spectrometry (LC–MS). The note with it: 2 µM.
The conditions of series [15]: bacteroides eggerthii, 12 h, 2 µM.
Description: The drug is tested on Bacteroides eggerthii strain: DSM20697 for biotransformation. The drug concentrations were measured before and after a 12-h incubation by liquid-chromatography-coupled mass spectrometry (LC–MS)
For series [16] the following is noted: bacteroides fragilis, 12 h, 2 µM.
Description: The drug is tested on Bacteroides fragilis strain: NCTC 9343 for biotransformation. The drug concentrations were measured before and after a 12-h incubation by liquid-chromatography-coupled mass spectrometry (LC–MS)
The conditions of series [17]: parabacteroides distasonis, 12 h, 2 µM.
Description: The drug is tested on Parabacteroides distasonis strain: ATCC8503 for biotransformation. The drug concentrations were measured before and after a 12-h incubation by liquid-chromatography-coupled mass spectrometry (LC–MS)
The conditions of series [18]: limosilactobacillus reuteri cf48-3a, 12 h, 2 µM.
Description: The drug is tested on Lactobacillus reuteri CF48-3A strain: BEI HM-102 for biotransformation. The drug concentrations were measured before and after a 12-h incubation by liquid-chromatography-coupled mass spectrometry (LC–MS)
The nature of series [19]: The drug is tested on Bifidobacterium breve strain: DSM20213 for biotransformation. The drug concentrations were measured before and after a 12-h incubation by liquid-chromatography-coupled mass spectrometry (LC–MS). The note with it: 2 µM.
Series [20] is described as follows: The drug is tested on Bacteroides fragilis strain: HMW615 for biotransformation. The drug concentrations were measured before and after a 12-h incubation by liquid-chromatography-coupled mass spectrometry (LC–MS). The note with it: 2 µM.

`CCCCCCOC(=O)/N=C(/N)c1ccc(NCc2nc3cc(C(=O)N(CCC(=O)OCC)c4ccccn4)ccc3n2C)cc1.CS(=O)(=O)O` [DABIGATRAN ETEXILATE MESYLATE]: the “Bacterial Biotransformation” value in [1], in series [2], in series [3], in series [4], in series [5] and in series [6] was “Compound NOT metabolized” each time. Further, the “Bacterial Biotransformation” value in series [7], in series [8], in series [9], in series [10], in series [11] and in series [12] was “Compound NOT metabolized” each time. Also, the “Bacterial Biotransformation” value in series [13], in [14], in series [15], in series [16], in series [17] and in series [18] was “Compound NOT metabolized” throughout.

For the compound `CCCc1nc2c(C)cc(-c3nc4ccccc4n3C)cc2n1Cc1ccc(-c2ccccc2C(=O)O)cc1`, the “Bacterial Biotransformation” value in series [19] is “Compound NOT metabolized”; in series [2], “Compound metabolized”; in series [3], “Compound metabolized”; in series [4], “Compound metabolized”; in series [5] it was “Compound metabolized”; in series [6] it was “Compound NOT metabolized”. The “Bacterial Biotransformation” value in series [7], in series [8], in [10], in series [12], in series [13] and in series [14] was “Compound NOT metabolized” in each case. The “Bacterial Biotransformation” value in [16] and in series [17] was “Compound metabolized” throughout.

As to `NC(CO)(CO)CO.O=C(c1ccccc1)c1ccc2n1CCC2C(=O)O` (stereo not drawn) [KETOROLAC TROMETHAMINE], the “Bacterial Biotransformation” value in series [2] is recorded as “Compound metabolized”; in series [3] it was “Compound metabolized”; in series [4], “Compound NOT metabolized”; in [5], “Compound NOT metabolized”; in series [6], “Compound NOT metabolized”; in [7] it was “Compound NOT metabolized”. Besides, the “Bacterial Biotransformation” value in [8], in series [9], in [11], in series [13], in [14] and in series [15] was “Compound NOT metabolized” each time. In addition, the “Bacterial Biotransformation” value in series [16] is given as “Compound metabolized”; in series [18], “Compound NOT metabolized”.

Regarding `CNS(=O)(=O)Cc1ccc2[nH]cc(CCN(C)C)c2c1.O=C(O)CCC(=O)O` [SUMATRIPTAN SUCCINATE], the “Bacterial Biotransformation” value in series [19], in series [4], in [5], in series [6], in series [7] and in series [8] was “Compound NOT metabolized” each time. For the same compound, the “Bacterial Biotransformation” value was “Compound NOT metabolized” in series [9]; “Compound NOT metabolized” in [10]; “Compound NOT metabolized” in series [11]; “Compound NOT metabolized” in series [12]; “Compound metabolized” in [13]; “Compound NOT metabolized” in series [14]. Besides, the “Bacterial Biotransformation” value in series [15], in [16], in series [17] and in [18] was “Compound NOT metabolized” in each case.

With `CCN(CC)CCCC(C)Nc1c2ccc(Cl)cc2nc2ccc(OC)cc12` (stereo not drawn) [QUINACRINE], the “Bacterial Biotransformation” value in series [19], in series [1], in [2], in [3], in series [4] and in series [5] was “Compound NOT metabolized” throughout. Also, the “Bacterial Biotransformation” value in series [7], in series [10], in series [13], in series [14], in [15] and in series [16] was “Compound NOT metabolized” throughout. The “Bacterial Biotransformation” value in series [17] and in series [18] was “Compound NOT metabolized” in each case.

For `COc1cc2nc(N3CCN(C(=O)C4CCCO4)CC3)nc(N)c2cc1OC` (stereo not drawn) [TERAZOSIN], the “Bacterial Biotransformation” value in [19], in [1], in [2], in [20], in series [3] and in [4] was “Compound NOT metabolized” in each case. The “Bacterial Biotransformation” value in series [5], in [6], in [7], in series [8], in series [9] and in [10] was “Compound NOT metabolized” throughout. Besides, the “Bacterial Biotransformation” value in series [11], in series [12], in [13], in series [15], in series [16] and in [17] was “Compound NOT metabolized” each time. In series [18], the “Bacterial Biotransformation” value is on record as “Compound NOT metabolized”.

`COc1ccc(CN2CCNCC2)c(OC)c1OC.Cl.Cl` [TRIMETAZIDINE DIHYDROCHLORIDE]: the “Bacterial Biotransformation” value in series [19] is “Compound NOT metabolized”; in series [1], “Compound metabolized”; in [2], “Compound metabolized”; in [3], “Compound metabolized”; in series [4], “Compound metabolized”; in [6], “Compound NOT metabolized”. The “Bacterial Biotransformation” value in series [7] is recorded as “Compound metabolized”; in series [8], “Compound NOT metabolized”; in series [9] it was “Compound NOT metabolized”; in series [10] it was “Compound NOT metabolized”; in series [11], “Compound NOT metabolized”; in series [12], “Compound NOT metabolized”. Further, the “Bacterial Biotransformation” value in series [13] is “Compound NOT metabolized”; in series [14], “Compound NOT metabolized”; in series [15] it was “Compound NOT metabolized”; in series [16], “Compound metabolized”; in [17], “Compound metabolized”; in [18] it was “Compound NOT metabolized”.
